Assay [1] relates to MDA-MB-231. The experiment in a line: Antiproliferative activity against human MDA-MB-231 cells assessed as inhibition of cell growth measured after 72 hrs by WST-8 method. It is filed as functional, cell-based. Conditions: MDA-MB-231, 72 h. A general note: Formazan colour is commonly taken as a measure of viable cells.
The subject of assay [2] is A549. Nature of the assay: Antiproliferative activity against human A549 cells assessed as inhibition of cell growth measured after 72 hrs by WST-8 method. It counts as functional, cell-based. The settings on record: A549, 72 h.
Assay [3] deals with Signal transducer and activator of transcription 3 (Homo sapiens) (UniProt P40763). The experiment in a line: Inhibition of STAT3 phosphorylation in human A549 cells assessed as decrease in IL-6 stimulated STAT3 phosphorylation at 0.5 to 3 uM preincubated for 1 hr followed by IL-6 stimulation and measured after 1 hrs by Western blot analysis. The settings on record: dose 0.5-3 µM, time 2.0 hrs. It counts as cell-based. In general terms: Immunoblotting shows a protein as a band on a membrane.

For assay [4] the target is unchanged. Nature of the assay: Inhibition of IL-6 stimulated STAT3 phosphorylation in human A549 cells at <0.1 uM preincubated for 1 hr followed by IL-6 stimulation and measured after 1 hrs by Western blot analysis relative to control. It is filed as cell-based. Conditions: time 2.0 hrs.
Assay [5] relates to A549. Nature of the assay: Antiproliferative activity against human A549 cells measured after 24 hrs by MTT assay. It is filed as functional, cell-based. The settings on record: A549, 24 h.
For assay [6], the target named is Signal transducer and activator of transcription 3 (Homo sapiens) (UniProt P40763). The experiment in a line: Inhibition of IL-6 stimulated STAT3 phosphorylation in human A549 cells at 10 uM preincubated for 1 hr followed by IL-6 stimulation and measured after 1 hrs by Western blot analysis. It counts as cell-based. Conditions: time 2.0 hrs.

Among the data in ChEMBL document CHEMBL5321259, “Synthesis and structure-activity relationship studies of naphthoquinones as STAT3 inhibitors” (Bioorg Med Chem, 2023) are IC50 and inhibition values, retold here.

pIC50: −log10 of the molar value. Active and inactive are the calls of the source. The rule behind the calls is not given here.

Sequence of Signal transducer and activator of transcription 3 (Homo sapiens) (P40763 whole entry): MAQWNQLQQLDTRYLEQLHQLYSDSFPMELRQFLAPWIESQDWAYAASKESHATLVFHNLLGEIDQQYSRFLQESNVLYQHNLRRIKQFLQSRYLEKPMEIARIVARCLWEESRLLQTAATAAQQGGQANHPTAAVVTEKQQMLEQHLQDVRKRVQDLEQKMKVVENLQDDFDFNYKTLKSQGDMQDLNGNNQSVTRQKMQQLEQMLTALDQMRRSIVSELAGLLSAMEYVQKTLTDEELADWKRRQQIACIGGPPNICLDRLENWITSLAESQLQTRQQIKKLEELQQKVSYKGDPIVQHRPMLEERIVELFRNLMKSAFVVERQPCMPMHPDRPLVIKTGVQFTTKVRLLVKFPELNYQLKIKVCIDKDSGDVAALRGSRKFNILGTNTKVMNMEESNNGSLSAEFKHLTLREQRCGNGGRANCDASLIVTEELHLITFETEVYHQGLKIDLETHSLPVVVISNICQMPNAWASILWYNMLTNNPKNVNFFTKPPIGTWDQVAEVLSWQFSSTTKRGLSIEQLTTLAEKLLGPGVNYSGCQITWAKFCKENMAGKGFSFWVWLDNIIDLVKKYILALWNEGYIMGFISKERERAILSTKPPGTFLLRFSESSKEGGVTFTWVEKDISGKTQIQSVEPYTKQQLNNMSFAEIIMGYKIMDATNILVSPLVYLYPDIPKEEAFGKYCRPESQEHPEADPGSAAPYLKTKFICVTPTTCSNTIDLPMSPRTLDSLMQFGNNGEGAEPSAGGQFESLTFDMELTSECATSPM

On to `CC(=O)c1cc2c(o1)-c1ccccc1C(=O)C2=O`, for which the pIC50 (as a rule, the IC50 on a negative log10 scale, so that one unit is a factor of ten) in assay [1] was 5.82; in assay [2] it was 5.77. The inhibition (in general, the share of the control response that was lost under treatment) in assay [3] is “Active”.

Take `C[C@H](O)c1cc2c(o1)C(=O)c1cccc(O)c1C2=O`: the pIC50 in assay [1] was 6.46; in assay [2] it was 6.80.

For `CC(O)c1cc2c(o1)C(=O)c1ccc(S(N)(=O)=O)cc1C2=O` (configuration not stated), the pIC50 in assay [1] is 6.51; in assay [2], 6.31.

For the molecule `CC(=O)c1cc2c(o1)-c1cccc(O)c1C(=O)C2=O`, the pIC50 in assay [1] was 5.85; in assay [2] it was 6.21. The inhibition in assay [4] came out at 100%. For the same molecule, the inhibition entry in assay [3] was “Active”.

Consider `CC(=O)c1cc2c(o1)C(=O)c1ccc(S(N)(=O)=O)cc1C2=O`, for which the pIC50 is 6.96 in assay [1] and 6.85 in assay [2].

The molecule `O=C1C(Nc2ccccc2N2CCNCC2)=CC2=NS(=O)(=O)c3cccc1c32` showed a pIC50 in assay [5] not below 5.33.

As to `C[C@H](O)c1cc2c(o1)-c1cccc(O)c1C(=O)C2=O`, the pIC50 in assay [1] is 5.62; in assay [2], 6.41. In assay [4], this molecule came in with an inhibition of 100%. In assay [3], the inhibition result is “Active”.

`CC(=O)c1cc2c(o1)C(=O)c1cccc3c1C2=NS3(=O)=O`: the pIC50 is 7.05 in assay [1] and 7.27 in assay [2]. Besides, the inhibition in assay [4] was 100%. For the same molecule, the inhibition entry in assay [3] was “Active”.

Turning to `CC(O)c1cc2c(o1)C(=O)c1cccc(S(=O)(=O)N(C)C)c1C2=O` (configuration not stated), the pIC50 is 6.11 in assay [1] and 5.92 in assay [2]. Moreover, the inhibition result in assay [3] was “Active”.

For `CC1(C)CCC2=C(O1)c1cccc(O)c1C(=O)C2=O`, the inhibition result in assay [6] is “inactive”. Besides, the pIC50 in assay [1] is 5.85; in assay [2], 6.20.

For the molecule `CC(O)c1cc2c(o1)C(=O)c1cccc3c1C2=NS3(=O)=O` (configuration not stated), the pIC50 is 7.31 in assay [1] and 7.47 in assay [2]. In assay [4], this molecule showed an inhibition of 100%. Besides, in assay [3], the inhibition entry was “Active”.
